The record followed here is PubChem BioAssay (NCI).

Where “and” joins values, the source holds several entries; their conditions need not be identical. Equal entries are not always repeated.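 All cell lines were grown in 96-well plates and treated with compound for 48 hours. The concentration for 50% growth inhibition is given as GI50. TGI: total growth inhibition.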

What all share (experiment): NCI tumour cell line growth inhibition, 48 h
Assay [1] deals with ACHN renal.
Assay [2] relates to EKVX NSCLC.
The test system of assay [3] is NCI-H226 lung.
Assay [4] concerns SNB-19 CNS.
Assay [5] concerns U251 CNS.
Assay [6] has as its system LOX IMVI melanoma.
The subject of assay [7] is OVCAR-4 ovarian.
Assay [8] deals with HCT-15 colon.
Assay [9] deals with SNB-78 CNS.
The subject of assay [10] is LXFL 529 NSCLC.

For the compound `CC[C@@]1(O)C(=O)OCc2c1cc1n(c2=O)Cc2cc3c([N+](=O)[O-])c(O)ccc3nc2-1`, the GI50 in assay [1] was 0.051 µM; in [2], 13.3 µM; in assay [3] it was 1.29 µM; in assay [4], 0.0661 µM; in assay [5] it was 0.0405 µM; in assay [6] it was 0.0552 µM. In addition, the GI50 in assay [7] was 2.22 µM; in assay [8], 2.71 µM; in assay [9], 6.6 µM; in assay [10], 4.33 µM. Further, the TGI in [1] is 0.611 µM; in [2], over 100 µM; in assay [4], over 27.8 µM; in assay [5], 1.22 µM; in assay [6], 0.91 µM; in [7] it was 8.73 µM. Also, the TGI in assay [8], in [9] and in assay [10] was over 100 µM throughout.

For the compound `Cc1cc(Cl)ccc1NC(=O)C1C(=O)C(=O)N(c2ccc(Cl)cc2C)C1=O` (centres undefined), the TGI in assay [1] is over 100 µM; in assay [2], over 100 µM; in assay [3], over 100 µM; in assay [4], 68.1 µM; in assay [5] it was over 100 µM; in [6], over 100 µM. The TGI in assay [7], in assay [8], in [9] and in assay [10] was over 100 µM each time.

`O=c1/c(=C/c2ccccc2O)sc2nc3ccccc3n12`: the TGI in [1] was over 100 µM; in assay [2] it was 82 µM; in assay [3], over 100 µM; in assay [4], over 100 µM; in assay [6], 98.3 µM; in assay [7], over 100 µM. Moreover, the figures for the TGI in assay [8], in [9] and in [10] were 49.8 µM, over 100 µM and over 100 µM, respectively.

`COC(=O)c1ccc(CS(=O)(=O)c2ccccc2)cc1`: the TGI in assay [1], in [2], in assay [3], in assay [4], in assay [5] and in [6] was over 100 µM in each case. Also, the TGI in assay [7], in assay [8], in [9] and in assay [10] was over 100 µM each time.

Regarding `CC(=O)CC(=O)ON(C)C(C)=O`, the TGI is over 100 µM in assay [1]; over 100 µM in [3]; over 100 µM in assay [4]; over 100 µM in assay [5]; over 100 µM in [6]; 89.1 µM in assay [7]. The TGI in [9] and in [10] was over 100 µM in each case.

Take `O=C1C2c3[nH]c4ccccc4c3C3CCC(c4ccccc4)CC3C2C(=O)N1c1ccccc1` (centres undefined): the TGI in [1], in [2], in [3], in [4], in [5] and in [6] was over 100 µM in each case. The TGI in [7], in assay [8], in assay [9] and in assay [10] was over 100 µM in each case.

Consider `Clc1cc(Cl)cc(C2SCc3nc4ccccc4n32)c1` (centres undefined), for which the TGI in assay [1] worked out at 69 µM; in [2], 70.8 µM; in assay [3], 37.3 µM; in assay [4], 66.9 µM; in [5], 34.2 µM; in assay [9], 60.1 µM. Moreover, the TGI in [10] worked out at 36.3 µM.

For `CC12CCC(=O)N1c1cc([N+](=O)[O-])ccc1N2` (centres undefined), the TGI in [1], in assay [2], in assay [3], in assay [4], in assay [5] and in [6] was over 100 µM in each case. For the same compound, the TGI in assay [7], in assay [8], in assay [9] and in assay [10] was over 100 µM each time.

Turning to `CN(C(=N)c1ccccc1)c1ccccc1`, the TGI in assay [2], in [3], in assay [4], in assay [5], in assay [6] and in [7] was over 100 µM throughout. The TGI in [8], in [9] and in [10] was over 100 µM in each case.

Consider `CS(=O)(=O)OCCCCOS(C)(=O)=O`, for which the GI50 was 354 µM in assay [1]; over 1000 µM in assay [2]; over 966 µM in assay [3]; over 862 µM in assay [4]; 469 µM in assay [5]; 5.96 µM in assay [6]. In addition, the GI50 is over 1000 µM in [7] and over 903 µM in [8]. Besides, the TGI was 250 µM and > 1000 µM in assay [1]; over 1000 µM in assay [2]; 250 µM and > 1000 µM in assay [3]; 233 µM and > 1000 µM in [4]; 238 µM and > 1000 µM in [5]; 248 µM and > 1000 µM in [6]. Further, the TGI in assay [7] was 223 µM and > 1000 µM; in assay [8], 236 µM and > 1000 µM; in assay [9], 233 µM; in [10], over 250 µM.

For `C[C@]12CC[C@H](OC(=O)Cc3ccc(N(CCCl)CCCl)cc3)CC1CC[C@@H]1C2CC[C@]2(C)NC(=O)CCC12` (some centres undefined), the TGI was 27.7 µM in assay [1]; 69.6 µM in assay [3]; over 100 µM in [4]; 29.3 µM in assay [5]; 27.2 µM in assay [6]; 28.9 µM in assay [7]. Besides, the TGI was found to be 30.6 µM in assay [8], 39.3 µM in [9] and 25 µM in [10].

For the compound `CO[C@H](C(=O)O[C@H]1C(=O)N2CCC3CCC1C32C)c1ccccc1` (some centres undefined), the TGI in [1], in assay [2], in [3], in assay [4], in [5] and in assay [6] was over 100 µM throughout. The TGI in assay [7], in assay [8], in assay [9] and in assay [10] was over 100 µM each time.

As for `C/C(=N\NC(=O)C[n+]1ccccc1)c1sc(-c2nc(C)c(/C(C)=N/NC(=O)C[n+]3ccccc3)s2)nc1C`, the TGI in [1], in assay [2], in [3], in assay [4], in assay [5] and in assay [6] was over 100 µM throughout. The TGI in assay [8], in [9] and in [10] was over 100 µM in each case.

As to `C/C(=N\N)C(CN1CCCCC1)C(c1ccccc1)c1c(O)c2ccccc2oc1=O` (centres undefined), the TGI was over 100 µM in assay [1]; over 100 µM in assay [2]; over 100 µM in [3]; over 100 µM in assay [4]; over 100 µM in assay [5]; over 31.6 µM in [6]. The TGI in [7], in assay [8], in assay [9] and in [10] was over 100 µM throughout.

As to `Clc1cc2nc[nH]c2cc1Cl`, the TGI in [1], in assay [2], in assay [3], in assay [4], in assay [5] and in assay [6] was over 100 µM in each case. The TGI in assay [7], in assay [8], in assay [9] and in assay [10] was over 100 µM each time.

For the compound `CC(=O)O[C@H]1CC[C@@]2(C)C(=CC[C@@H]3C2CC[C@]2(C)C(=O)NC(=O)CC32)C1` (some centres undefined), the TGI in assay [1], in [2], in assay [3], in assay [4], in assay [5] and in assay [6] was over 100 µM throughout. The TGI in [7], in [8], in assay [9] and in assay [10] was over 100 µM throughout.

As for `O=C1C[C@@H]2[C@@H](C=CC23CC3)N1O`, the TGI in assay [2], in assay [3], in [4], in assay [5], in assay [6] and in assay [7] was over 100 µM throughout. Also, the TGI in assay [9] and in assay [10] was over 100 µM in each case.

With `N#CC1=C(c2ccccc2)NN(Cc2ccccc2)C(c2ccc(Cl)cc2)CC1=O` (centres undefined), the TGI was over 100 µM in [1]; over 100 µM in assay [3]; 72.8 µM in [4]; 38.2 µM in assay [5]; 41.8 µM in assay [6]; 75.9 µM in [7]. For the same compound, the TGI in assay [8] is 90.6 µM; in assay [9], over 100 µM; in [10] it was over 100 µM.

As for `CC(=O)OC1COC(n2c(O)c(N=Nc3ccc([N+](=O)[O-])cc3)c3cc(Br)c([N+](=O)[O-])cc32)C(OC(C)=O)C1OC(C)=O` (centres undefined), the TGI in assay [1] was 93.6 µM; in assay [2], over 100 µM; in assay [3], over 100 µM; in assay [4], over 100 µM; in assay [5], over 100 µM; in assay [6] it was over 100 µM. For the same compound, the TGI was over 100 µM in [7], over 100 µM in assay [8], 75.8 µM in [9] and over 100 µM in assay [10].

Turning to `COc1ccc(C(=C(C#N)C#N)c2ccc(OC)cc2)cc1`, the TGI in assay [1], in [2], in [3], in [4], in [5] and in assay [6] was over 100 µM each time. Besides, the TGI in assay [7], in [8], in [9] and in assay [10] was over 100 µM each time.

Consider `CC1OC(OC23C(=O)CC(C)(O)CC2(O)C=CC2=C3C(=O)c3ccc(C4CC(OC5CCC(OC6CC(O)C(O)C(C)O6)C(C)O5)C(O)C(C)O4)c(O)c3C2=O)CCC1O` (centres undefined), for which the TGI in [1] is 31.4 µM and 30.8 µM; in assay [2] it was 32.7 µM and 31.7 µM; in assay [3], 38.5 µM and 35.5 µM; in assay [4] it was > 100 µM and 51.7 µM; in assay [5], 29.5 µM and 30.8 µM; in [6], 27.5 µM and 19.7 µM. Further, the TGI in assay [7] is 33.6 µM and 30 µM; in [9] it was 35.2 µM and 34.4 µM; in assay [10] it was 28.8 µM and 23.9 µM. For the same compound, the GI50 in [4] was 50.8 µM and 22.8 µM; in assay [6], 13.1 µM and 6.26 µM.

For the compound `CN1CCN2c3ccccc3CC(C#N)(C#N)C2C1` (centres undefined), the TGI in assay [1], in assay [2], in assay [3], in assay [4], in assay [5] and in assay [6] was over 100 µM each time. Besides, the TGI in assay [7], in assay [8], in assay [9] and in [10] was over 100 µM in each case.

On to `OCC(O)C(O)C(O)c1nn[nH]n1` (centres undefined), for which the TGI in [1], in assay [2], in assay [3], in assay [5], in assay [6] and in [7] was over 100 µM each time. The TGI in assay [8], in assay [9] and in [10] was over 100 µM throughout.

Take `CC(C)(C)c1cc(O)c2c(c1O)C(=O)CCC2`: the TGI in [1], in [2], in [4], in assay [5], in [6] and in assay [7] was over 100 µM each time. The TGI in assay [8], in assay [9] and in assay [10] was over 100 µM throughout.
